Laboratory results taken from patent US20150011423A1, “MEANS AND METHODS FOR ASSESSING KIDNEY TOXICITY” (BASF SE, priority 2011, published 2015).
Marks after values point to notes of the source that are not given here.

Test system: rats
Assay: 28-day repeated dose study in rats with mass spectrometry-based plasma metabolite profiling (GC-MS, LC-MS, SPE-LC-MS); treatment ratios versus control
Conditions: plasma
[1] = female rats, day 28, high dose, Table 5a tubular necrosis
[2] = female rats, day 28, high dose, Table 5b tubular necrosis
[3] = male rats, day 28, high dose, Table 8a direct tubular effect
[4] = male rats, day 28, high dose, Table 8b direct tubular effect
[5] = male rats, day 7, high dose, Table 7a interstitial nephritis
[6] = male rats, day 7, high dose, Table 7b interstitial nephritis
[7] = male rats, day 14, high dose, Table 7a interstitial nephritis
[8] = male rats, day 14, high dose, Table 7b interstitial nephritis
[9] = male rats, day 28, high dose, Table 7a interstitial nephritis
[10] = male rats, day 28, high dose, Table 7b interstitial nephritis

SMILES: ClC(Cl)=C(Cl)C(Cl)=C(Cl)Cl [Hexachlorobutadiene]
- Docosahexaenoic acid (C22:cis[4,7,10,13,16,19]6), treatment ratio versus control [1]: 1.19 *
- Docosapentaenoic acid (C22:cis[7,10,13,16,19]5), treatment ratio versus control [1]: 1.61 *
- Eicosanoic acid (C20:0), treatment ratio versus control [1]: 1.56 *
- Glycerol, lipid fraction, treatment ratio versus control [1]: 1.29 *
- Leucine, treatment ratio versus control [1]: 1.34 *
- Phosphate (inorganic and organic phosphates), treatment ratio versus control [1]: 1.19 *
- Hippuric acid, treatment ratio versus control [2]: 0.35 *
- Lactate, treatment ratio versus control [2]: 0.62 *
- Glycerol-3-phosphate, polar fraction, treatment ratio versus control [3]: 1.58 *
- Isoleucine, treatment ratio versus control [3]: 1.11 *
- Leucine, treatment ratio versus control [3]: 1.17 *
- Lysophosphatidylethanolamine (C22:0), treatment ratio versus control [3]: 1.33 *
- Ornithine, treatment ratio versus control [3]: 1.35 *
- TAG No 02, treatment ratio versus control [3]: 1.47 *
- Threonine, treatment ratio versus control [3]: 1.3 *
- 14-Methylhexadecanoic acid, treatment ratio versus control [4]: 0.82 *
- 16-Methylheptadecanoic acid, treatment ratio versus control [4]: 0.51 *
- 18-Hydroxy-11-deoxycorticosterone, treatment ratio versus control [4]: 0.49 *
- Citrate, treatment ratio versus control [4]: 0.93 *
- DAG (C18:1, C18:2), treatment ratio versus control [4]: 0.66 *
- Elaidic acid (C18:trans[9]1), treatment ratio versus control [4]: 0.8 *
- Isopalmitic acid (C16:0), treatment ratio versus control [4]: 0.61 *
- Ketoleucine, treatment ratio versus control [4]: 0.91 *
- Linolenic acid (C18:cis[9,12,15]3), treatment ratio versus control [4]: 0.6 *
- Lysophosphatidylcholine (C18:0), treatment ratio versus control [4]: 0.97 *
- Oleic acid (C18:cis[9]1), treatment ratio versus control [4]: 0.71 *
- Palmitoleic acid (C16:cis[9]1), treatment ratio versus control [4]: 0.25 *
- TAG (C16:0, C16:1), treatment ratio versus control [4]: 0.51 *
- trans-4-Hydroxyproline, treatment ratio versus control [4]: 0.74 *

SMILES: C[C@H](CCC(=O)O)[C@H]1CC[C@H]2[C@@H]3CC[C@@H]4C[C@H](O)CC[C@]4(C)[C@H]3CC[C@]12C [Lithocholic acid]
- Eicosanoic acid (C20:0), treatment ratio versus control [5]: 1.81 *
- Glucuronic acid, treatment ratio versus control [5]: 0.85 *
- Glycerol, polar fraction, treatment ratio versus control [6]: 0.93^
- Isopalmitic acid (C16:0), treatment ratio versus control [6]: 0.63 *
- Kynurenic acid, treatment ratio versus control [6]: 0.75 *
- Glucuronic acid, treatment ratio versus control [7]: 1
- myo-Inositol-2-phosphate, treatment ratio versus control [7]: 1.01
- Glycerol, polar fraction, treatment ratio versus control [8]: 0.86^
- Isopalmitic acid (C16:0), treatment ratio versus control [8]: 0.54 *
- Kynurenic acid, treatment ratio versus control [8]: 0.75 *
- Glucuronic acid, treatment ratio versus control [9]: 1
- Lignoceric acid (C24:0), treatment ratio versus control [9]: 1.3 *
- Sphingomyelin (d18:1, C16:0), treatment ratio versus control [9]: 1.09
- Threonine, treatment ratio versus control [9]: 1.55 *
- Glycerol, polar fraction, treatment ratio versus control [10]: 0.73 *
- Isopalmitic acid (C16:0), treatment ratio versus control [10]: 0.68 *
- Kynurenic acid, treatment ratio versus control [10]: 0.71^
